Assay type in all cases: functional
For assay [1], the system named is Thanatephorus cucumeris. Description: Antifungal activity against Thanatephorus cucumeris at 50 ug/ml by poisoned food technique.
The subject of assay [2] is Sclerotinia sclerotiorum. Description: Antifungal activity against Sclerotinia sclerotiorum at 50 ug/ml by poisoned food technique.
The subject of assay [3] is Ceratobasidium cereale. Description: Antifungal activity against Ceratobasidium cereale at 50 ug/ml by poisoned food technique.
Assay [4] has as its system Rhizoctonia solani. Description: Antifungal activity against Rhizoctonia solani at 50 ug/ml by poisoned food technique.
Assay [5] deals with Phytophthora infestans. Description: Antifungal activity against Phytophthora infestans at 50 ug/ml by poisoned food technique.
The test system of assay [6] is Macrophoma. Description: Antifungal activity against Macrophoma kuwatsukai at 50 ug/ml by poisoned food technique.
The test system of assay [7] is Fusarium fujikuroi. Description: Antifungal activity against Fusarium fujikuroi at 50 ug/ml by poisoned food technique.
For assay [8], the system named is Fusarium graminearum. Description: Antifungal activity against Fusarium graminearum at 50 ug/ml by poisoned food technique.
The subject of assay [9] is Mycosphaerella arachidis. Description: Antifungal activity against Mycosphaerella arachidis at 50 ug/ml by poisoned food technique.
Assay [10] relates to Bipolaris maydis. Description: Antifungal activity against Cochliobolus heterostrophus at 50 ug/ml by poisoned food technique.
Assay [11] relates to Botrytis cinerea. Description: Antifungal activity against Botryotinia fuckeliana at 50 ug/ml by poisoned food technique.
Assay [12] concerns Alternaria solani. Description: Antifungal activity against Alternaria solani at 50 ug/ml by poisoned food technique.
Assay [13] deals with Alternaria mali. Description: Antifungal activity against Alternaria mali at 50 ug/ml by poisoned food technique.
The test system of assay [14] is Alternaria kikuchiana. Description: Antifungal activity against Alternaria kikuchiana at 50 ug/ml by poisoned food technique.

We go through six compounds from ChEMBL document CHEMBL3044675, “Synthesis and Antifungal Activities of Some Novel Pyrimidine Derivatives” (2011).

With `Cc1cc(O)no1` [HYMEXAZOL], the Activity was determined as 78.4% in assay [1]; 66.7% in [2]; 25% in assay [3]; 63.5% in assay [4]; 36.4% in assay [5]; 50% in assay [6]. Besides, the Activity in assay [7] came out at 40%; in assay [8], 33.3%; in assay [9] it was 93.3%; in assay [10], 34.8%; in assay [11], 70.4%; in assay [12], 88.2%. The Activity in assay [13] turned out to be 85.7%; in [14], 81.8%.

As to `Cc1cc(OC(=O)c2ccc(Cl)cc2)nc(C(C)C)n1`, the Activity was found to be 0% in [1]; 60% in assay [2]; 0% in assay [3]; 61.9% in assay [4]; 13.6% in assay [5]; 37.5% in assay [6]. The Activity is reported as 53.3% in assay [7]; 40.7% in assay [8]; 6.7% in assay [9]; 26.1% in assay [10]; 33.3% in [11]; 0% in assay [12]. Moreover, the Activity was 21.4% in [13] and 22.7% in [14].

For the compound `Cc1cc(OC(=O)c2ccc(F)cc2)nc(C(C)C)n1`, the Activity is given as 15.7% in [1]; 40% in assay [2]; 0% in assay [3]; 55.6% in [4]; 18.2% in assay [5]; 46.9% in [6]. For the same compound, the Activity was 46.7% in assay [7]; 0% in assay [9]; 13% in assay [10]; 14.8% in [11]; 0% in [12]; 21.4% in assay [13]. The compound further gave an Activity in [14] of 27.3%.

Turning to `Cc1cc(OC(=O)N2CCOCC2)nc(C(C)C)n1`, the Activity in assay [1] was determined as 19.6%; in [2] it was 0%; in assay [3], 20%; in [4], 61.9%; in assay [5], 0%; in assay [6], 31.3%. In addition, the Activity in assay [7] came out at 6.7%; in assay [8] it was 7.4%; in assay [9], 6.7%; in assay [10], 17.4%; in assay [11], 18.5%; in assay [12], 0%. In addition, the Activity in assay [13] is recorded as 0%; in assay [14] it was 40.9%.

`Cc1cc(Nc2ccc(OC(F)(F)F)cc2)nc(C(C)C)n1`: the Activity in assay [1] is listed as 76.5%; in assay [2] it was 0%; in assay [3] it was 25%; in assay [4] it was 66.7%; in [5] it was 36.4%; in assay [6] it was 25%. The Activity in [7] was 40%; in assay [8], 44.4%; in assay [9], 46.7%; in assay [10], 39.1%; in assay [11], 25.9%; in assay [12], 35.3%. In addition, the results for the Activity in assay [13] and in [14] were 50% and 63.6%, respectively.

Consider `COc1cc(C(=O)Oc2cc(C)nc(C(C)C)n2)cc(OC)c1OC`, for which the Activity is given as 9.8% in assay [1]; 66.7% in [2]; 15% in assay [3]; 63.5% in assay [4]; 40.6% in assay [6]; 20% in [7]. For the same compound, the Activity in assay [9] is recorded as 6.7%; in assay [10], 26.1%; in assay [11] it was 14.8%; in assay [12], 0%; in [13], 28.6%; in [14], 31.8%.
